Eight compounds from US10202372B2, “Trisubstituted pyrido[2,3-D]pyrimidines, methods for preparing same and therapeutic uses thereof” (CENTRE NATIONAL DE LA RECHERCHE SCIENTIFIQUE (C.N.R.S), priority 2012, dated 2019) can be followed below.

Where a name gives a salt, the structure may show the parent alone. A value given as a limit tells only on which side of the number the result lay.

In series [1] the test system is HCT116. The experiment in a line: Toxicity test on cells, HCT116. Conditions: Homo sapiens, HCT-116; 48 hours of treatment, Hoechst nuclei staining. The format is cell-based. As for the experimental part:
(§1) The compounds according to the invention were also tested on the cell lines HuH7, CaCo-2, HCT116, PC3, NCl, HacaT and Fibroblasts.
(§2) Operating Procedure: The cells were cultivated according to the ECACC recommendations. The toxicity test of the compounds on these cells was conducted as follows: 4×10^3 cells/well were sown in 96 wells. 24 hours after sowing the cells, the cells were exposed to increased concentrations of the compounds (0.1 μM-0.3 μM-0.9 μM-2.7 μM-8.3 μM-25 μM). After 48 hours of treatment, the cells were washed in PBS and bound in a cold ethanol/acetic acid (90/5) mixture for 20 minutes. Next, the nuclei were coloured with […] (Sigma). The acquisition of images and the analysis was carried out by means of a reader Cellomics ArrayScan VTI/HCS (Thermo Scientific).

In series [2] the test system is Fibroblasts. The experiment in a line: Toxicity test on cells, Fibroblasts. In kind it is cell-based. Conditions: Fibroblast; 48 hours of treatment, Hoechst nuclei staining. The method, then:
as §1, §2

In series [3] the test system is PC3. The experiment in a line: Toxicity test on cells, PC3. The format is cell-based. Conditions: Homo sapiens, PC-3; 48 hours of treatment, Hoechst nuclei staining. The method, then: as §1, §2
Series [4] has as its system CaCo2. The experiment in a line: Toxicity test on cells, CaCo2. The format is cell-based. Conditions: Homo sapiens, Caco-2; 48 hours of treatment, Hoechst nuclei staining. As for the experimental part: as §1, §2
In series [5] the test system is NCl. The experiment in a line: Toxicity test on cells, NCl. The format is cell-based. The conditions noted are these: 48 hours of treatment, Hoechst nuclei staining. The method, then: as §1, §2
Series [6] has as its system HUH7. The experiment in a line: Toxicity test on cells, HUH7. In kind it is cell-based. Conditions: Homo sapiens, Huh-7; 48 hours of treatment, Hoechst nuclei staining. As for the experimental part: as §1, §2
For series [7], the system named is MDA. The experiment in a line: Toxicity test on cells, MDA. In kind it is cell-based. The conditions noted are these: 48 hours of treatment, Hoechst nuclei staining. As for the experimental part:
[The procedure below names another cell line; the source lists this cell line under the same test.] as §1, §2

Series [8] deals with PI3Kα (Homo sapiens, UniProt P42336). The experiment in a line: PI3Kα kinase activity, Adapta TR-FRET ADP detection. The format is biochemical. Conditions: purified p110α/p85α heterodimer, triplicate; read-out: Kinases IC50 PI3Kα. The method, then: (§3) The activity of the PI3Kα kinase was evaluated by using a purified heterodimer (reference: PV4788 from Invitrogen) consisting of the α catalytic p110 subunit (PIK3CA) and the α regulation p85 subunit (PIK3R1). The assay of the kinase with the kit Adapta™ (reference: PV5099 from Invitrogen) is an enzymatic test based on the detection of ADP, produced during the reaction, by the fluorescence technique TR-FRET. It took place in a 384-well plate and was able to be divided into two phases: an enzymatic reaction phase, and a phase for detecting the ADP level.
Chain of PI3Kα (P42336 whole entry): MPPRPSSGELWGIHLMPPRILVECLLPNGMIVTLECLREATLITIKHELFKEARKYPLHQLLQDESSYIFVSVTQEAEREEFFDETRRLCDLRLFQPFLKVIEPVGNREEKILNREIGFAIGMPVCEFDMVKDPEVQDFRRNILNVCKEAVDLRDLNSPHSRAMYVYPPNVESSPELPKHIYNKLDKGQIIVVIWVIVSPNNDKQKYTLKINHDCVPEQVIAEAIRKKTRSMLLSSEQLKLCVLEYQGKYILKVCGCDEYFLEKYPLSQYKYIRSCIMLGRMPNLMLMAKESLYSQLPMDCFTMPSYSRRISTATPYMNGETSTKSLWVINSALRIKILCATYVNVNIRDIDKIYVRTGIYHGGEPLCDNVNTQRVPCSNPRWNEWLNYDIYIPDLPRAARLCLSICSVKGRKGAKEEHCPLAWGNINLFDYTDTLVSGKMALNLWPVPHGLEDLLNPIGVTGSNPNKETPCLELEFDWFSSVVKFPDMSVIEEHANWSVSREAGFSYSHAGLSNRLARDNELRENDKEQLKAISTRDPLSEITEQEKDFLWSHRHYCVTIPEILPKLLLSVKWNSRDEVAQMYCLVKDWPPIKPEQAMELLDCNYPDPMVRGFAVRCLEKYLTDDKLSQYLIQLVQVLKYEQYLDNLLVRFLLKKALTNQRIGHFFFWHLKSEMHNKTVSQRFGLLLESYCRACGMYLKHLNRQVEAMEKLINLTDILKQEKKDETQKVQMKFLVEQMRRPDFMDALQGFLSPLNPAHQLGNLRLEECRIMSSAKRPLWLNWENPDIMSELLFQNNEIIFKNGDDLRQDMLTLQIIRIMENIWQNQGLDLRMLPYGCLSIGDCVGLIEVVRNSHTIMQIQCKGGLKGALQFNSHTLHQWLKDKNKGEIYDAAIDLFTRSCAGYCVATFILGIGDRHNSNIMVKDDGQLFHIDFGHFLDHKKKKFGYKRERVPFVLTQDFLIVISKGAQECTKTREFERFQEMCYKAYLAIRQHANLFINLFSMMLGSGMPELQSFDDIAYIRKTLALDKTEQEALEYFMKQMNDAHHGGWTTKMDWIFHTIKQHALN
Chain of PI3Kα (P27986 whole entry partner): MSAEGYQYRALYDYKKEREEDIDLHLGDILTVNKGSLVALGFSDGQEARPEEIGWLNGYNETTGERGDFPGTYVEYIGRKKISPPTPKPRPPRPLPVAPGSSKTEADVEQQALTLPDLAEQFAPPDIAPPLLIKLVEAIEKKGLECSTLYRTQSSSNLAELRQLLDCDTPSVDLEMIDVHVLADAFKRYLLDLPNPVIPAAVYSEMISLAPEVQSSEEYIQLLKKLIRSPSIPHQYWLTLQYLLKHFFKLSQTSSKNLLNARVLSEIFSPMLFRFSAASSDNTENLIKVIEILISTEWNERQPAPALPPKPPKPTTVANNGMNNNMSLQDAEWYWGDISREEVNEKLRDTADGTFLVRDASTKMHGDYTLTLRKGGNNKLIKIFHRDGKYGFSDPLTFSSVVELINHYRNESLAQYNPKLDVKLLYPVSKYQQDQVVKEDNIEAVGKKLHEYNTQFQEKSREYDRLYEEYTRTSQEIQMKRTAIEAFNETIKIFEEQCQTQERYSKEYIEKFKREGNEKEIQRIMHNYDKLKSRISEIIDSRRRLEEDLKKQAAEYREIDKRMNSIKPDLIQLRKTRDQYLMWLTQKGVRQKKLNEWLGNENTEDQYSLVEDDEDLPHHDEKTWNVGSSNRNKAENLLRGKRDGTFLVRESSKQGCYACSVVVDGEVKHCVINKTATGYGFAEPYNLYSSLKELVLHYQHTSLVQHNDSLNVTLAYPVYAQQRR
(§4) During the enzymatic reaction phase, the following components were mixed in 10 μL of a same well: 2.5 μL of each dilution in series of inhibitors taken up in DMSO and then diluted to 1/25 in the reaction buffer (250 mM HEPES pH 7.5, 500 mM NaCl, 0.15 CHAPS, 5 mM EGTA, 15 mM MgCl2 and 1 mM DTT, ref.: PV5101 from Invitrogen), 2.5 μL of a solution containing PI3K at the optimum concentration (concentration defined according to the optimization step described in the operating procedure of the kit) diluted in the same reaction buffer, and finally, 5 μL of a solution containing 20 μM ATP and 100 μM PIP2 diluted in the reaction buffer. For each inhibitor concentration, the reaction was conducted in three copies (triplicate). The reaction was then incubated for 60 min at room temperature without any stirring in darkness.
(§5) During the phase for detecting ADP, 5 μL of a detection solution containing an anti-ADP antibody labeled with europium (6 nM), a tracer of the Alexa Fluor® 647 type coupled with ADP (30 nM), and EDTA (30 mM, for stopping the kinase reaction) were diluted in the dilution buffer (reference: PV3574 from Invitrogen). After 30 min of incubation at room temperature with stirring (40 rpm) in darkness, the 384-well plates were read in a plate reader Victor V configured for HTRF (Perkin Elmer). The excitation was produced at 340 nm and emission was measured at 665 nm and 615 nm. The inhibition curve was then plotted according to the emission ratio at 665 nm/615 nm versus the inhibitor concentration.
(§6) In order to obtain a linear response of the signal, a titration curve ATP-ADP, corresponding to the conversion % of ATP into ADP, was achieved by varying both of these species while keeping [ADP]+[ATP]=10 μM. The emission ratio at 665 nm/615 nm resulting from this (Y) was plotted versus the conversion % of ATP into ADP (X). The data of this curve were formatted according to a model with three hyperbolic parameters from the following equation: Y=C+A*(1−(X/(B+X))).
(§7) The software package GraphPad™ Prism® thus allows calculation of the parameters A, B and C. A conversion % corresponds to an emission ratio 665 nm/615 nm, this percentage is calculated by using the following equation: Conversion %=B*(C+A−Ratio)/(Ratio−C)
(§8) The three parameters A, B and C having been defined by the preceding equation, the conversion % was therefore able to be plotted versus the inhibitor concentration. The amount of inhibitor required for causing a 50% variation in the % conversion of ATP into ADP corresponds to the IC50 value of the inhibitor.
A general note: Time-resolved FRET reads energy transfer from a long-lived donor to a nearby acceptor.

Series [9] deals with mTOR (Homo sapiens, UniProt P42345). The experiment in a line: mTOR kinase activity, LANCE Ultra TR-FRET. In kind it is biochemical. The conditions noted are these: truncated mTOR protein, triplicate; read-out: Kinases IC50 mTOR. The method, then: The activity of the mTOR kinase was evaluated by using a purified truncated protein of the amino acids 1-1359 (reference: PV4753 from Invitrogen). The assay of the activity of the enzyme was carried out with the kit LANCE® Ultra which is an enzymatic test based on the detection of a phosphorylated peptide produced during the reaction, by using the fluorescence technique TR-FRET. It took place in a 384-well plate and was able to be divided into two phases: an enzymatic reaction phase and a phase for detecting the phosphorylated peptide.
Chain of mTOR (P42345 1360-2549): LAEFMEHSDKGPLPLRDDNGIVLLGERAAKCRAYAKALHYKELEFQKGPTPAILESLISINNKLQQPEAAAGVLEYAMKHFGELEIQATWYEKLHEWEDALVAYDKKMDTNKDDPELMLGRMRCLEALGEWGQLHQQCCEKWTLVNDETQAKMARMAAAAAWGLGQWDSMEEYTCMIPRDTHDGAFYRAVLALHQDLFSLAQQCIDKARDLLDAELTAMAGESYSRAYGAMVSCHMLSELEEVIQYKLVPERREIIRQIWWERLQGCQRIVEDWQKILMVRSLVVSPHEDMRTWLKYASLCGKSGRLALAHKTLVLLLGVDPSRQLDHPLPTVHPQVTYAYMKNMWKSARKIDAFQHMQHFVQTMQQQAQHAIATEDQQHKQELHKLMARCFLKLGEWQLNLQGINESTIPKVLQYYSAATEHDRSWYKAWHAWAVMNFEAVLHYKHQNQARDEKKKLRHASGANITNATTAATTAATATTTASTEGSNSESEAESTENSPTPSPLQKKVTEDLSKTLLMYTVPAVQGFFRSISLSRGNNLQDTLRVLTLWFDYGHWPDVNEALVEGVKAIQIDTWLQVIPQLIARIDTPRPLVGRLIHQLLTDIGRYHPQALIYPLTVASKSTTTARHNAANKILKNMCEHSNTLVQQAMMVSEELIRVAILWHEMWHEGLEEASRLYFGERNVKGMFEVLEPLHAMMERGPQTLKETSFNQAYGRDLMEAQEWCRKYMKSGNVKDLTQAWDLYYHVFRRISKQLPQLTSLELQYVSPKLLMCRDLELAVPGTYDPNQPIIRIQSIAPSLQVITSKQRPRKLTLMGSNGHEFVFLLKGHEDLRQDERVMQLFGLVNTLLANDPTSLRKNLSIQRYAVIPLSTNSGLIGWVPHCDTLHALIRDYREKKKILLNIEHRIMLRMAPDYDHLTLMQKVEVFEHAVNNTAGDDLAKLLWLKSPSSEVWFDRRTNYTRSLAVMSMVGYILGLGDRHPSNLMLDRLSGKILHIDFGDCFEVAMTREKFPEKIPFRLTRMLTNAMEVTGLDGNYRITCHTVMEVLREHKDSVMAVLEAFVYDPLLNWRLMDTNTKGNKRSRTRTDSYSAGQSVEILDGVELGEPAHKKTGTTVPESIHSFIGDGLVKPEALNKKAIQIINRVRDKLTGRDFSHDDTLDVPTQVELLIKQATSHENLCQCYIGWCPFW
During the enzymatic reaction phase, the following components were mixed in 10 μL of a same well: 5 μL of each dilution in series of inhibitors taken up in DMSO and then diluted to 1/25 in the reaction buffer (50 mM HEPES pH 7.5, 0.1% Tween-20, 1 mM EGTA, 10 mM MnCl2, 3 mM MgCl2 and 2 mM of DTT), 2.5 μL of a solution containing mTOR at the optimum concentration (concentration defined according to the optimization step described in the operating procedure of the kit) diluted in the same reaction buffer, and finally 2.5 μL of a solution containing 40 μM of ATP and 200 μM non-phosphorylated peptide diluted in the reaction buffer. For each inhibitor concentration, the reaction was conducted in three copies (triplicate). The reaction was then incubated for 120 min at room temperature without any stirring in darkness.
During the phase for detecting the phosphorylated peptide, 5 μL of an EDTA solution (32 mM) diluted in the dilution buffer (ref.: CR97-100 from Perkin Elmer) were injected into each well. After 5 min of incubation with stirring, 5 μL of a phosphorylated anti-peptide antibody solution labeled with europium (8 nM) and diluted in the same dilution buffer was added into each well. After 60 min of incubation at room temperature with stirring (40 rpm) in darkness, the 384-well plates were read in a plate reader Victor V configured for HTRF (Perkin Elmer). […] The inhibition curve was then plotted according to the fluorescence intensity value at 665 nm versus the inhibitor concentration.
The amount of inhibitor required for causing a 50% variation in the intensity of the signal corresponds to the IC50 value of the inhibitor.

In series [10] the target is PI3Kδ (Homo sapiens, UniProt O00329). The experiment in a line: PI3Kδ kinase activity, Adapta TR-FRET ADP detection. In kind it is biochemical. The conditions noted are these: purified p110δ/p85α heterodimer; read-out: Kinases IC50 PI3Kδ. The method, then:
as §3, §4, §5, §6, §7, §8
(§9) The activity of the kinase PI3Kγγ (PV4786 from Invitrogen) was evaluated on the p110γγ catalytic subunit (PI3KCG) and that of the kinase PI3Kδδ on the purified heterodimer (PV5273) respectively consisting of the δδ catalytic p110 subunit (PIK3CD) and the α regulation p85 subunit (PIK3R1) by following the same procedure.

Series [11] addresses PI3Kγ (Homo sapiens, UniProt P48736). The experiment in a line: PI3Kγ kinase activity, Adapta TR-FRET ADP detection. The format is biochemical. The conditions noted are these: p110γ catalytic subunit; read-out: Kinases IC50 PI3Kγ. As for the experimental part:
as §3, §4, §5, §6, §7, §8, §9

For series [12], the system named is HacaT. The experiment in a line: Toxicity test on cells, HacaT. The format is cell-based. The conditions noted are these: Homo sapiens, 48 hours of treatment, Hoechst nuclei staining. As for the experimental part:
as §1, §2

Chain of PI3Kγ (P48736 whole entry): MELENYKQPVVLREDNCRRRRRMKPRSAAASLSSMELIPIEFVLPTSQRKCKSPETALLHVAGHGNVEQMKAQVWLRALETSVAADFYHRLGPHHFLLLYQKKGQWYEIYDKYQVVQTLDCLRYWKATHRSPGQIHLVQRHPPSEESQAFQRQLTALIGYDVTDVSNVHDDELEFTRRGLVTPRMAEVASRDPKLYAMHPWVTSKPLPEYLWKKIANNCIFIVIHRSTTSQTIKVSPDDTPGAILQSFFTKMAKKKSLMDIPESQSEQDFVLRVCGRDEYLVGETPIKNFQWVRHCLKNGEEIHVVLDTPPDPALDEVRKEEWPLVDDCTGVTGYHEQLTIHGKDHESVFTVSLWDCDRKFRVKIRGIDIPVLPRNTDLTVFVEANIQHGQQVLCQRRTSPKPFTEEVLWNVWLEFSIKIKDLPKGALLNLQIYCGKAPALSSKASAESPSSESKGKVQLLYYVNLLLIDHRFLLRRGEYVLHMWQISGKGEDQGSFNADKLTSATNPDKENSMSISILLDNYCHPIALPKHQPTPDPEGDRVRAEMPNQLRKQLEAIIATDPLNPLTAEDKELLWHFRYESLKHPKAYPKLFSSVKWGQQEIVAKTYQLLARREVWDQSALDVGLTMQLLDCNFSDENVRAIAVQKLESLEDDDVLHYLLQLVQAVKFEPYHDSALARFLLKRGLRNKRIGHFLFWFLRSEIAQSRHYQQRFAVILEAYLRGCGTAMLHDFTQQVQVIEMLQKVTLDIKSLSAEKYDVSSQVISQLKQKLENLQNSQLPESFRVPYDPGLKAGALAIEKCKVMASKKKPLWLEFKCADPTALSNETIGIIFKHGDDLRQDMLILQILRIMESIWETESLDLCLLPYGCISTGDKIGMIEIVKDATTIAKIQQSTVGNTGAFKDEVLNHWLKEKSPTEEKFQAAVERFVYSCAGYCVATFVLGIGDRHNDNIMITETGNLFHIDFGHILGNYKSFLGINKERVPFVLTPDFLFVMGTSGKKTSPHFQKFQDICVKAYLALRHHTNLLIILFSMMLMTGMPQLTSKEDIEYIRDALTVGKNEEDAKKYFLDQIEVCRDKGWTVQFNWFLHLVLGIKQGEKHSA

For the compound `Oc1ccccc1-c1nc(N2CCOCC2)c2ncc(Cl)cc2n1` [Compound 5, 2-(7-Chloro-4-morpholinopyrido[3,2-d]pyrimidin-2-yl)phenol], the melting point – broadly, the temperature of the solid-liquid transition – was 212 °C. For the same compound, the IC50 (usually the concentration at which inhibition is half-maximal) in series [1] is more than 25 µM. The same compound gave an IC50 in series [2] of more than 25 µM. The compound further gave an IC50 in series [3] of more than 25 µM. In [4], this compound returned an IC50 of more than 25 µM. In addition, the concentration for half-maximal inhibition (IC50) in series [5] is more than 25 µM. In series [6], this compound gave an IC50 of more than 25 µM. The IC50 in [7] is more than 25 µM.
Turning to `O=C(Nc1ccc(-c2nc(N3CCOCC3)c3ncc(CN4CCOCC4)cc3n2)cc1)Nc1cccc(CO)c1` [Compound 80, 1-[3-(hydroxymethyl)phenyl]-3-{4-[4-(morpholin-4-yl)-7-(morpholin-4-ylmethyl)pyrido[3,2-d]pyrimidin-2-yl]phenyl}urea], the melting point lay in the range of 200 to 202 °C.
In turn, `O=[N+]([O-])c1ccc(-c2nc(N3CCOCC3)c3ncc(Cl)cc3n2)cc1` [Compound 10, 4-(7-chloro-2-(4-nitrophenyl)pyrido[3,2-d]pyrimidin-4-yl)morpholine] had a melting point of 200 °C.
Take `OCc1cccc(-c2nc(N3CCOCC3)c3ncc(Cl)cc3n2)c1` [Compound 8, (3-(7-Chloro-4-morpholinopyrido[3,2-d]pyrimidin-2-yl)phenyl)methanol]: the melting point worked out at 157 °C. This compound had an IC50 in [1] of 5 µM. The same compound came in with a half-maximal inhibitory concentration (IC50) in series [2] of 2 µM. Further, in [8], the IC50 amounted to 0.032 µM. Further, in series [9], the IC50 is more than 50 µM. In [3], this compound had a half-inhibitory concentration (IC50) of 20 µM. The same compound returned an IC50 in series [4] of 3 µM. The compound further returned an IC50 in series [5] of more than 25 µM. Also, the IC50 in series [10] stood at 0.016 µM. This compound showed an IC50 in series [6] of 25 µM. Further, the IC50 in series [11] came out at 0.431 µM. Besides, in [7], inhibition was half-maximal at 20 µM (IC50).
Regarding `Oc1cccc(-c2nc(N3CCOCC3)nc3cc(Cl)cnc23)c1` [Compound 51, 3-(7-chloro-2-morpholinopyrido[3,2-d]pyrimidin-4-yl)phenol], the IC50 in series [1] was more than 25 µM; in series [2], more than 25 µM; in series [8], 0.546 µM; in series [9] it was 5.2 µM; in [3], more than 25 µM; in series [4], 20 µM. Besides, the IC50 is more than 25 µM in series [5]; 3.9 µM in [10]; more than 25 µM in [6]; 5 µM in series [11]; more than 25 µM in series [7]; more than 25 µM in [12].
Consider `Oc1cccc(-c2nc(N3CCOCC3)c3ncc(CN4CCOCC4)cc3n2)c1` [Compound 29, 3-(4-morpholino-7-(morpholinomethyl)pyrido[3,2-d]pyrimidin-2-yl) phenol hydrochloride], for which the IC50 in series [1] was 5 µM; in [2], more than 25 µM; in [8], 0.043 µM; in series [9], 0.286 µM; in series [3], 2 µM; in series [4], 3 µM. Also, the IC50 in series [5] was more than 25 µM; in series [10], 0.041 µM; in series [6], more than 25 µM; in [11], 1.3 µM; in series [7], more than 25 µM; in [12] it was 8 µM.
On to `[N-]=[N+]=NCc1cnc2c(N3CCOCC3)nc(-c3cccc(O)c3)nc2c1` [Compound 39, 3-(7-(azidomethyl)-4-morpholinopyrido[3,2-d]pyrimidin-2-yl)phenol], for which the IC50 in series [1] is 5 µM; in series [2], more than 25 µM; in series [8], 0.01 µM; in series [9] it was 0.055 µM; in series [3], 3 µM; in series [4] it was 2 µM. The IC50 in series [5] was 3 µM; in [10], 0.022 µM; in [6], 4 µM; in series [11] it was 0.043 µM; in series [7], more than 25 µM; in series [12], 4 µM.
Regarding `Oc1cccc(-c2nc(N3CCOCC3)c3ncc(CNC4CC4)cc3n2)c1` [Compound 27, 3-(7-((cyclopropylamino)methyl)-4-morpholinopyrido[3,2-d]pyrimidin-2-yl)phenolhydrochloride], the IC50 in series [1] was 5 µM; in [2], more than 25 µM; in series [8], 0.109 µM; in series [9] it was 0.249 µM; in [3], 2 µM; in series [4], 3 µM. Besides, the IC50 is more than 25 µM in [5]; 0.011 µM in [10]; more than 25 µM in [6]; 0.428 µM in series [11]; more than 25 µM in [7]; more than 25 µM in series [12].
